Measured values as given in patent US20160002226A1, “PYRI[…] AND THEIR USE IN THE TREATMENT, AMELIORATION OR PREVENTION OF INFLUENZA” (F. Hoffmann-La Roche AG, priority 2014, published 2016).

Columns and labels:
[1] = molecular target: T1, influenza A virus (IAV) PA-Nter fragment (amino acids 1-209) (Influenza A virus, UniProt P31343); experiment: FRET endonuclease activity assay; type: biochemical; settings: PA-Nter 0.5 μM, 1.6 μM RNA substrate
T1 construct: PA-Nter fragment (amino acids 1-209); made in house

[2] = tested on: influenza A virus A/Aichi/2/68 (H3N2) on MDCK cells; experiment: Cytopathic effect (CPE) assay; type: cell-based; settings: for IC50: Influenza A virus, 48 hrs; for CPE (% CPE reduction): @ 50 μM
[3] = molecular target: whole RNP complex of IAV strain A/PR/8/34 (Influenza A virus, UniProt P03433); experiment: Transcription assay (TA assay); type: biochemical; settings: RNPs of A/PR/8/34, capped RNA substrate

Compound | IC50 [1] [nM] | IC50 ([2]; the 1st table) [nM] | other results
CC(C)N1CCn2c(CN(Cc3ccccc3)Cc3ccccc3)cc(=O)c(O)c2C1=O | 1550 | > 50000 | 
CC(C)N1CCn2c(CNC(=O)[C@]34C[C@H]5C[C@H](C[C@H](C5)C3)C4)cc(=O)c(O)c2C1=O | 1430 | > 50000 | 
CC(C)N1CCn2c(CNC(=O)C3CC(F)(F)C3)cc(=O)c(O)c2C1=O |  | > 50000 | 
CC(C)N1CCn2c(CNC(=O)CC(C)(C)C)cc(=O)c(O)c2C1=O | 380 | > 50000 | 
CC(C)N1CCn2c(CN(C)C)cc(=O)c(O)c2C1=O | 92 | > 50000 | 
CC(C)N1CCn2c(CN(C(=O)Cc3ccc(F)cc3F)C3CCCCC3)cc(=O)c(O)c2C1=O | 580 | > 50000 | 
CC(C)N1CCn2c(CN(C)Cc3ccccc3)cc(=O)c(O)c2C1=O |  |  | IC50 [3]: 804 nM; IC50 ([2]; the 2nd table): > 50000 nM
CCCN(Cc1cc(=O)c(O)c2n1CCN(C(C)C)C2=O)C(C)=O |  | > 50000 | 
CC(C)N1CCn2c(CNC3c4ccccc4CCc4ccccc43)cc(=O)c(O)c2C1=O | 3620 | > 50000 | 
CC(C)N1CCn2c(CNS(=O)(=O)c3ccc(Cl)cc3F)cc(=O)c(O)c2C1=O | 223 | > 50000 | 
CC(C)N1CCn2c(CN(Cc3cccc(-c4ccccc4)c3)C3CC3)cc(=O)c(O)c2C1=O |  |  | IC50 [3]: 533 nM; IC50 ([2]; the 2nd table): > 50000 nM
CC(C)N1CCn2c(CN(Cc3ccccc3)C(=O)c3ccccc3)cc(=O)c(O)c2C1=O | 315 | > 50000 | 
CC(C)N1CCn2c(CNC(c3ccccc3)c3ccccc3)cc(=O)c(O)c2C1=O | 1130 | > 50000 | 
CC(C)N1CCn2c(CNC(=O)CCC(F)(F)F)cc(=O)c(O)c2C1=O | 250 | > 50000 | 
CC(C)N1CCn2c(CN(Cc3cccc4ccccc34)C(=O)C3CC(F)(F)C3)cc(=O)c(O)c2C1=O |  |  | IC50 [3]: 253 nM; IC50 ([2]; the 2nd table): > 50000 nM
CCCN(Cc1cccc2ccccc12)Cc1cc(=O)c(O)c2n1CCN(C(C)C)C2=O |  |  | IC50 [3]: 1020 nM; IC50 ([2]; the 2nd table): > 50000 nM
Cc1noc(C)c1S(=O)(=O)NCc1cc(=O)c(O)c2n1CCN(C(C)C)C2=O | 182 | > 50000 | 
CC(C)N1CCn2c(CNS(=O)(=O)N(C)C)cc(=O)c(O)c2C1=O | 90 | > 50000 | 
CC(C)N1CCn2c(CN(Cc3cccc(Cl)c3)C3CC3)cc(=O)c(O)c2C1=O |  |  | IC50 [3]: 171 nM; IC50 ([2]; the 2nd table): > 50000 nM
CC(C)N1CCn2c(CNS(=O)(=O)c3c(Cl)cccc3Cl)cc(=O)c(O)c2C1=O | 119 | > 50000 | 
CCCN(Cc1ccc(-c2ccccc2)cc1)Cc1cc(=O)c(O)c2n1CCN(C(C)C)C2=O |  |  | IC50 [3]: 63800 nM; IC50 ([2]; the 2nd table): > 50000 nM
CC(C)N1CCn2c(CNS(=O)(=O)c3ccccc3)cc(=O)c(O)c2C1=O | 130 | > 50000 | 
CC(C)N1CCn2c(CN(Cc3ccccc3-c3ccccc3)C(=O)C3CC(F)(F)C3)cc(=O)c(O)c2C1=O |  |  | IC50 [3]: 229 nM; IC50 ([2]; the 2nd table): > 50000 nM
CCN(Cc1ccccc1)Cc1cc(=O)c(O)c2n1CCN(C(C)C)C2=O |  |  | IC50 [3]: 1560 nM; IC50 ([2]; the 2nd table): > 50000 nM
CC(C)N1CCn2c(CN(C)S(=O)(=O)c3ccccc3)cc(=O)c(O)c2C1=O | 200 | > 50000 | 
CC(C)N1CCn2c(CNC(=O)C34CCC(CO)(CC3)CC4)cc(=O)c(O)c2C1=O | 1870 | > 50000 | 

Compound | IC50 [1] [nM] | IC50 ([2]; the 1st table) [nM] | other results
CN1CCn2c(CNS(=O)(=O)c3ccc(Cl)cc3)cc(=O)c(O)c2C1=O | 130 | > 50000 | 
Cc1ccc(S(=O)(=O)NCc2cc(=O)c(O)c3n2CCN(C(C)C)C3=O)cc1 | 203 | > 50000 | 
CCCN(Cc1ccccc1-c1ccccc1)Cc1cc(=O)c(O)c2n1CCN(C(C)C)C2=O.O=C(O)C(F)(F)F |  |  | TA IC50 [3]: in- soluble; IC50 ([2]; the 2nd table): > 50000 nM
CC(C)N1CCn2c(CNCc3ccccc3-c3ccccc3)cc(=O)c(O)c2C1=O |  |  | IC50 [3]: 535 nM; IC50 ([2]; the 2nd table): > 50000 nM
CC(C)N1CCn2c(CNS(=O)(=O)c3ccccc3Cl)cc(=O)c(O)c2C1=O | 87 | > 50000 | 
CC(C)N1CCn2c(CN(Cc3cccc4ccccc34)C3CC3)cc(=O)c(O)c2C1=O |  | > 50000 | 
CC(C)N1CCn2c(CNC(=O)c3ccc(Cl)cc3)cc(=O)c(O)c2C1=O | 245 | > 50000 | 
CC(C)CS(=O)(=O)NCc1cc(=O)c(O)c2n1CCN(C(C)C)C2=O | 211 | > 50000 | 
CCCN(Cc1cc(=O)c(O)c2n1CCN(C(C)C)C2=O)CC1(c2ccccc2)CCCC1 |  |  | IC50 [3]: 452 nM; IC50 ([2]; the 2nd table): > 50000 nM
CCCN(Cc1cc(=O)c(O)c2n1CCN(C(C)C)C2=O)C(=O)C1CCCCC1 |  | > 50000 | 
CC(C)N1CCn2c(CNC(=O)c3ccc(C#N)cc3)cc(=O)c(O)c2C1=O | 400 | > 50000 | 
CC(C)N1CCn2c(CN(Cc3ccccc3)C(=O)C3CC(F)(F)C3)cc(=O)c(O)c2C1=O |  |  | IC50 [3]: 2980 nM; IC50 ([2]; the 2nd table): > 50000 nM
CCCN(Cc1cccc(-c2ccccc2)c1)Cc1cc(=O)c(O)c2n1CCN(C(C)C)C2=O |  |  | IC50 [3]: 690 nM; IC50 ([2]; the 2nd table): > 50000 nM
CC(C)N1CCn2c(CNC(=O)C3(c4ccc(Cl)cc4)CCCC3)cc(=O)c(O)c2C1=O | 840 | > 50000 | 
CC(C)CC(=O)N(Cc1cc(=O)c(O)c2n1CCN(C(C)C)C2=O)C1CCCCC1 | 469 | > 50000 | 
CC(C)N1CCn2c(CN(Cc3ccccc3)c3ccccc3)cc(=O)c(O)c2C1=O | 1180 |  | 
CCN(Cc1ccc(Cl)cc1)Cc1cc(=O)c(O)c2n1CCN(C(C)C)C2=O.O=C(O)C(F)(F)F |  |  | IC50 [3]: 682 nM; CPE (% CPE reduction) [2]: 18% @ 50 μM
CCCN(Cc1cc(=O)c(O)c2n1CCN(C(C)C)C2=O)C(=O)C1CC1 |  | > 50000 | 
CC(C)N1CCn2c(CNC3CCCCC3)cc(=O)c(O)c2C1=O | 497 | > 50000 | 
CCN(Cc1cccc2ccccc12)Cc1cc(=O)c(O)c2n1CCN(C(C)C)C2=O |  |  | IC50 [3]: 220 nM; IC50 ([2]; the 2nd table): > 50000 nM
Cc1cccc(C(=O)NCc2cc(=O)c(O)c3n2CCN(C(C)C)C3=O)c1 | 1070 | > 50000 | 
CC(C)N1CCn2c(CNS(=O)(=O)Cc3ccccc3)cc(=O)c(O)c2C1=O | 187 | > 50000 | 
CC(C)N1CCn2c(CNS(=O)(=O)c3cn(C)cn3)cc(=O)c(O)c2C1=O | 260 | > 50000 | 
CC(C)N1CCn2c(CN(C)Cc3cccc(Cl)c3)cc(=O)c(O)c2C1=O.O=C(O)C(F)(F)F |  |  | IC50 [3]: 81 nM; CPE (% CPE reduction) [2]: 30.8% @ 50 μM
CC(C)N1CCn2c(CNS(=O)(=O)c3cccc(Cl)c3)cc(=O)c(O)c2C1=O | 62 | > 50000 | 
CC(C)N1CCn2c(CNC(=O)c3ccccc3)cc(=O)c(O)c2C1=O |  | > 50000 | FRET IC50 [1]: insoluble

Compound | IC50 [1] [nM] | IC50 ([2]; the 1st table) [nM] | other results
CC(C)N1CCn2c(CNS(=O)(=O)c3ccc(Cl)cc3)cc(=O)c(O)c2C1=O | 209 | > 50000 | 
CC(C)N1CCn2c(CN(Cc3ccccc3-c3ccccc3)C3CC3)cc(=O)c(O)c2C1=O |  | > 50000 | 
CC(C)N1CCn2c(CNS(=O)(=O)c3cccc4ccccc34)cc(=O)c(O)c2C1=O | 124 | > 50000 | 
Cc1ccccc1S(=O)(=O)NCc1cc(=O)c(O)c2n1CCN(C)C2=O | 48 | > 50000 | 
CC(=O)N(Cc1ccccc1)Cc1cc(=O)c(O)c2n1CCN(C(C)C)C2=O | 44 | > 50000 | 
CC(C)N1CCn2c(CNS(=O)(=O)c3ccccc3F)cc(=O)c(O)c2C1=O | 104 | > 50000 | 
CC(C)N1CCn2c(CNS(=O)(=O)Cc3ccc(Cl)cc3)cc(=O)c(O)c2C1=O | 603 | > 50000 | 
CC(=O)N(Cc1cc(=O)c(O)c2n1CCN(C(C)C)C2=O)C1CCCCC1 | 48 | > 50000 | 
CCCN(Cc1cc(=O)c(O)c2n1CCN(C(C)C)C2=O)C(=O)c1ccccc1 |  | > 50000 | 
CCCN(Cc1cc(=O)c(O)c2n1CCN(C(C)C)C2=O)C1(c2ccccc2)CCCC1 |  |  | IC50 [3]: 870 nM; IC50 ([2]; the 2nd table): > 50000 nM
CC(C)N1CCn2c(CNC(=O)c3ccc(C(F)(F)F)cc3)cc(=O)c(O)c2C1=O | 9450 | > 50000 | 
CC(C)N1CCn2c(CNC(=O)C3CCCCC3)cc(=O)c(O)c2C1=O | 360 | > 50000 | 
CC(C)N1CCn2c(CNC3(c4ccccc4)CCCC3)cc(=O)c(O)c2C1=O |  | > 50000 | 
CC(C)N1CCn2c(CNS(=O)(=O)c3ccc(Cl)cc3Cl)cc(=O)c(O)c2C1=O | 144 | > 50000 | 
CC(C)N1CCn2c(CNC(=O)c3cccn3C)cc(=O)c(O)c2C1=O | 310 | > 50000 | 
CC(C)N1CCn2c(CNC(=O)C3CC3)cc(=O)c(O)c2C1=O | 350 | > 50000 | 
CC(C)N1CCn2c(CN)cc(=O)c(O)c2C1=O | 493 | > 50000 | 
CN1CCn2c(CNS(=O)(=O)c3ccccc3)cc(=O)c(O)c2C1=O | 27 | > 50000 | 
CCCN(Cc1ccccc1)Cc1cc(=O)c(O)c2n1CCN(C(C)C)C2=O | 390 | > 50000 | 
CC(C)N1CCn2c(CNS(=O)(=O)C3CC3)cc(=O)c(O)c2C1=O | 181 | > 50000 | 
CC(C)N1CCn2c(CNC(=O)CC34C[C@H]5C[C@@H](C3)C[C@@H](C4)C5)cc(=O)c(O)c2C1=O | 1680 | > 50000 | 
CC(C)N1CCn2c(CNS(=O)(=O)c3ccc(C#N)cc3)cc(=O)c(O)c2C1=O | 322 | > 50000 | 
CC(C)N1CCn2c(CNC(=O)CC3CC3)cc(=O)c(O)c2C1=O | 300 | > 50000 | 
CC(C)N1CCn2c(CNS(=O)(=O)c3cccc(F)c3)cc(=O)c(O)c2C1=O | 153 | > 50000 | 
CC(C)N1CCn2c(CNC(=O)CC(F)(F)F)cc(=O)c(O)c2C1=O | 320 | > 50000 | 
CN1CCn2c(CNS(=O)(=O)c3cccc(Cl)c3)cc(=O)c(O)c2C1=O | 82 | > 50000 | 
